Measurements published in PMC9569163 (Journal of molecular biology, 2020).

What was measured:
[1] = cited from earlier work
human TfR = human TfR (Homo sapiens, UniProt P02786); conditions: SPR, 40 nM analyte, HBS-P+ pH 7.4, 56 RUs captured human TfR
TfR = conditions: cited from earlier work
[2] = cited from earlier work; remark: listed apart in the source

human TfR, sequence (P02786 121-760): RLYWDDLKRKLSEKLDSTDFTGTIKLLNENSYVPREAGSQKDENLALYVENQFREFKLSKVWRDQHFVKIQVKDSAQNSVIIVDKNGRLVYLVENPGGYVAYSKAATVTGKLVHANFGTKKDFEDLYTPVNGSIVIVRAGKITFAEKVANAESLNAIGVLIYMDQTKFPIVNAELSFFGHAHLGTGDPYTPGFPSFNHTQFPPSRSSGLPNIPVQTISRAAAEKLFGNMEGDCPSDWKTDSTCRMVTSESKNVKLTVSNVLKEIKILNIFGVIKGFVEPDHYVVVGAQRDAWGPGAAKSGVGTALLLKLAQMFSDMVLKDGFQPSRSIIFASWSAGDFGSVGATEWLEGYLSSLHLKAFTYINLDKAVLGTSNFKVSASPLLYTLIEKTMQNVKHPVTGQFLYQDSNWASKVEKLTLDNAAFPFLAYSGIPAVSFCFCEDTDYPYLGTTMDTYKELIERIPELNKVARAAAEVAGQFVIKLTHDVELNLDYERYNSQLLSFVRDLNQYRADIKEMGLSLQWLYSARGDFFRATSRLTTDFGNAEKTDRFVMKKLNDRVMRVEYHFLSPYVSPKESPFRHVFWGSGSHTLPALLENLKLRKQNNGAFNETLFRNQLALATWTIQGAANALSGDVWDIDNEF

Angiopep-2
serum degradation half-life [1]: ~ 20 minutes

holo-transferrin
interaction with captured TfR (human TfR): demonstrated an interaction

transferrin
endocytosis rate t½ (TfR): 3.5 min | plasma half-life [2]: 40 h
